# In patent US6426231B1 (priority 1998, dated 2002):
# Values joined by “and” are separate entries in the source; they are usually repeats but may differ in a detail not shown here. Equal values may be shown once. “Also recorded” adds a separate entry of the source. Read-outs that look alike come from different tables or passages of the source.
# Experiments:
# αHL•βCD = αHL•βCD (Staphylococcus aureus, UniProt P09616); test: biochemical; type: biochemical; conditions: for K^Af (formation constant of αHL•βCD•A) / ΔG of analyte binding to αHL•βCD: pH 3.0
# Sequence of αHL•βCD (P09616 27-319 limits assumed): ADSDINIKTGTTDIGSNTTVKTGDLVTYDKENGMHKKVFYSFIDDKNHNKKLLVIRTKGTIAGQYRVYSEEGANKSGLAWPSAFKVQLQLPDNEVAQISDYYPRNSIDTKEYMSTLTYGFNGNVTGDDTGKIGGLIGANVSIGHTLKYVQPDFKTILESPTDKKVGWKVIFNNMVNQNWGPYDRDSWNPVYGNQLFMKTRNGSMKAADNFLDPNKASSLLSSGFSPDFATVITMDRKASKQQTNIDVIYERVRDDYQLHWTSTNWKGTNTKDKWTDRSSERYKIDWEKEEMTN
# [1] = type: binding; conditions: pH 3.0
# [2] = cited from earlier work
# αHL pore = αHL pore (Staphylococcus aureus, UniProt P09616); type: biochemical
# Sequence of αHL pore (P09616 27-319 limits assumed): as above
# WT-αHL pore = WT-αHL pore (Staphylococcus aureus, UniProt P09616); type: biochemical; conditions: pH 7.5
# Sequence of WT-αHL pore (P09616 27-319 limits assumed): as above
compound,measurement,setting,value
Cl.NC12CC3CC(CC(C3)C1)C2 [1-adamantanamine hydrochloride],(IP·C·A IP·C)/(IP·C·A-IP),αHL•βCD,0.294 ± 0.005
same,Kd,αHL•βCD,109 ± 4.95 µM
same,Residence time (τ) of the analyte on αHL·βCD,αHL•βCD,1.42 ± 0.14 ms
NC(=O)C12CC3CC(CC(C3)C1)C2 [1-adamantanecarboxamide],(IP·C·A IP·C)/(IP·C·A-IP),αHL•βCD,0.333 ± 0.005
same,Kd,αHL•βCD,34.2 ± 2.77 µM
same,Residence time (τ) of the analyte on αHL·βCD,αHL•βCD,3.99 ± 0.18 ms
O=C(O)C12CC3CC(CC(C3)C1)C2 [1-adamantanecarboxylic acid],(IP·C·A IP·C)/(IP·C·A-IP),αHL•βCD,0.346 ± 0.005
same,Kd,αHL•βCD,7.53 ± 1.16 µM
same,Residence time (τ) of the analyte on αHL·βCD,αHL•βCD,14.0 ± 0.79 ms
same,conductance of the partially blocked channel (αHL•βCD) with guest,αHL•βCD,112.2 pS
same,residence time (τ) of guest,αHL•βCD,14.0 ms
same,"single channel current level, additional block of αHL•βCD",αHL•βCD,−4.7 pA
same,K^Af (formation constant of αHL•βCD•A),αHL•βCD,1.35±0.19×10^5 M^−1
same,ΔG of analyte binding to αHL•βCD,αHL•βCD,-7.0 kcal/mol
same,K^Af (formation constant of analyte with βCD in solution),[1],5.76±1.50×10^4 M^−1
same,ΔG of analyte binding to βCD in solution,[1],-6.5 kcal/mol
same,Literature ΔG for binding to βCD,[2]; pH 4.05,-7.5 kcal/mol
same,Literature ΔG for binding to βCD,[2]; pH 7.2,-6.4 kcal/mol
same,binding to the pore without adapter/carrier,αHL pore,does not bind to the pore
OCCC12CC3CC(CC(C3)C1)C2 [1-adamantaneethanol],(IP·C·A IP·C)/(IP·C·A-IP),αHL•βCD,0.348 ± 0.003
same,Kd,αHL•βCD,3.33 ± 1.07 µM
same,Residence time (τ) of the analyte on αHL·βCD,αHL•βCD,30.6 ± 2.42 ms
Cl.NC1C2CC3CC(C2)CC1C3 (stereo not shown) [2-adamantanamine hydrochloride],(IP·C·A IP·C)/(IP·C·A-IP),αHL•βCD,0.286 ± 0.004
same,Kd,αHL•βCD,98.6 ± 14.3 µM
same,Residence time (τ) of the analyte on αHL·βCD,αHL•βCD,2.54 ± 0.21 ms
same,conductance of the partially blocked channel (αHL•βCD) with guest,αHL•βCD,126.5 pS
same,residence time (τ) of guest,αHL•βCD,2.54 ms
same,residence time of βCD•A on αHL compared with βCD,αHL•βCD,greater than βCD itself
same,"single channel current level, additional block of αHL•βCD",αHL•βCD,−5.7 pA
same,K^Af (formation constant of αHL•βCD•A),αHL•βCD,1.03±0.15×10^4 M^−1
same,ΔG of analyte binding to αHL•βCD,αHL•βCD,-5.5 kcal/mol
same,K^Af (formation constant of analyte with βCD in solution),[1],9.84±2.19×10^3 M^−1
same,ΔG of analyte binding to βCD in solution,[1],-5.5 kcal/mol
same,effect on the completely open channel,αHL pore; hydrochloride,does not affect; also recorded: no effect
"CC(=O)NC12CC3CC(CC(C3)C1)C2 [N-(1-adamantyl)acetamide, N-(1-adamantyl)-acetamide]",(IP·C·A IP·C)/(IP·C·A-IP),αHL•βCD,0.348 ± 0.003
same,Kd,αHL•βCD,14 ± 2.24 µM
same,Residence time (τ) of the analyte on αHL·βCD,αHL•βCD,7.32 ± 2.13 ms
heptakis-6-sulfato-β-cyclodextrin [s7βCD],PK+/PNa+,WT-αHL pore,0.92
same,dwell time (τ) of adapter on WT-αHL pore,WT-αHL pore,846 ± 37 ms
same,g (conductance),WT-αHL pore,53 pS and 53 ± 6 pS
α-cyclodextrin,block of the ionic current,αHL pore,reversible partial blocks
β-cyclodextrin [βCD],dwell time (τ) of adapter on WT-αHL pore,WT-αHL pore,0.84 ms
same,g (conductance),WT-αHL pore,240 pS and 240 ± 5 pS
same,block of the ionic current,αHL pore,reversible partial blocks
same,partial block of the channel,αHL pore,64%
same,single channel current level with βCD bound,αHL pore,−11.5 pA
same,K^Cf (equilibrium formation constant αHL•βCD),αHL pore; pH 3,475 M⁻¹
same,conductance of αHL in the presence of βCD,αHL pore; pH 3,272 pS
same,k^Coff,αHL pore; pH 3,115 s⁻¹
same,k^Con,αHL pore; pH 3,54600 M⁻¹ s⁻¹
γ-cyclodextrin [γCD],g (conductance),WT-αHL pore,328 pS and 328 ± 4 pS
same,block of the ionic current,αHL pore,reversible partial blocks
